{"source": "paper PMC7570852", "about": "“Ruthenium(II)/(III) DMSO-Based Complexes of 2-Aminophenyl Benzimidazole with In Vitro and In Vivo Anticancer Activity” (Molecules, 2020)", "key": {"[1]": {"tested_on": "Ehrlich ascites carcinoma (EAC) cells", "assay": "EAC cytotoxicity assay in vitro (trypan blue exclusion)", "format": "cell-based, mouse", "conditions": "2 h at 37 °C", "experimental": "The cytotoxicity determination of compound (2) against EAC cells was calculated by the trypan blue exclusion method. The EAC cells were aspirated from the mouse’s peritoneal cavity by a sterile syringe and immediately transferred into a sterile falcon tube. Then, the cells were washed with sterile PBS to remove any serum or blood traces and centrifuged for 3 min, after which the supernatant was removed. After washing 2–3 times with PBS, the cell pellet was aspirated into a sterile falcon tube and every 1 mL of cell pellet was resuspended in 9 mL of sterile PBS until a concentration of […] in 0.1 mL was achieved, as determined with a hemocytometer; where 0.1 mL of cell suspension was added to 0.880 mL PBS then 20 μL of trypan blue was added. The cells’ viability was checked using a hemocytometer and found to be greater than 98%. […] Cells were visualized and counted under the microscope. For each sample at least 500 cells were counted, and the percent of dead to live cells was calculated. […] The percentage of cell viability was calculated using Equations (5) and (6):(5) % Cytotoxicity=Tdead−Cdead/Ttotal×100% % Viability = 100 − % Cytotoxicity(6) where Tdead is the number of dead cells in the treated tube, Cdead is the number of dead cells in the control tube, and Ttotal is the total number of cells (dead + live) in the treated tube."}, "[2]": {"tested_on": "human colorectal cancer (Caco2) cells", "assay": "MTT cell viability assay, Caco2", "format": "cell-based", "experimental": "The cytotoxic effect of the Hapbim ligand and its complexes (1) and (2) on human breast cancer (MCF7), human colorectal cancer (Caco2), and human normal liver (THLE-2) cell lines was evaluated by the MTT assay. The cells were cultured in a 96-well plate (1 × 10^4 cells/well, 100 μL/well) containing DMEM medium provided with 10% fetal bovine serum, and 1% penicillin/streptomycin. Then, the cells were incubated at 37 °C for 24 h in a CO2 incubator under 5% CO2, 95% air until reaching a confluence of 70–80%. A 20 μL volume of each compound at different concentrations (from 5 to 400 μM for the cancer cell and from 600 to 1000 μM for the normal cells) was added and the cells were re-incubated for a further 24 h. After the incubation period, the cells were incubated again with 5 mg/mL of MTT for 4 h and then the medium was replaced with 100 μL DMSO and vortexed for 20 min. Finally, the absorbance was recorded at 570 nm using the microplate reader. […] To calculate the cell inhibition percentage, the following equation was used:% Cell inhibition = 100 − % cell viability ((At − Ab)/(Ac − Ab)) × 100%)(4) where At is the absorbance value of tested compound; Ab is the absorbance value of blank; Ac is the absorbance value of the control."}}, "data": [{"smiles": "CS(C)=O.Nc1ccccc1-c1nc2ccccc2[nH]1.O.[Cl][Ru]([Cl])[Cl]", "note": "[(2), [Ru(III)Cl3(DMSO)(Hapbim)]·H2O]", "values": [{"measurement": "IC50 against EAC cells", "setting": "[1]", "result": "70 ± 1", "unit": "µg/mL"}, {"measurement": "IC50", "setting": "[2]; MTT, 24 h", "result": "250 ± 10", "unit": "µM"}, {"measurement": "IC50 Caco2", "setting": "[2]; MTT, 24 h", "result": "129 ± 8", "unit": "µg/mL"}, {"measurement": "Therapeutic index: IC50 of THLE-2 cell/IC50 of Caco2", "setting": "[2]; in vitro", "result": 9.95}]}]}
